In US12679878B2, “CRF2 receptor agonists and their use in therapy” (SANOFI, priority 2020, dated 2026):
Where two headings read alike, the source gives them in different places. Starred links: 1 amine or outer side, 2 acyl side, 3 side chain; linkers in the order of their positions; H or OH if unused. Non-standard residues stand in square brackets, D forms with d. Residues, ends and D or L forms follow the SMILES beside them. Groups on a side chain read outwards from the residue. *: point of attachment. C18 diacid = O=C(O)CCCCCCCCCCCCCCCCC(=O)*; γGlu = O=C(O)[C@H](CCC(=O)[*:2])N[*:1]; AEEA = NCCOCCOCC(=O)O; Aib = CC(C)(N)C(=O)O

What was measured:
human CRF2α receptor = molecular target: T1, human CRF2α receptor (Homo sapiens, UniProt Q13324); experiment: cAMP agonism at human CRF2 α receptor in TeloHEAC cells (Example 7); type: cell-based; conditions: cAMP HTRF, TeloHEAC cells stably expressing human CRF2 α
T1 construct: expressed in transfected cells; host or cells: TeloHEAC
T1 sequence (Q13324 1-411): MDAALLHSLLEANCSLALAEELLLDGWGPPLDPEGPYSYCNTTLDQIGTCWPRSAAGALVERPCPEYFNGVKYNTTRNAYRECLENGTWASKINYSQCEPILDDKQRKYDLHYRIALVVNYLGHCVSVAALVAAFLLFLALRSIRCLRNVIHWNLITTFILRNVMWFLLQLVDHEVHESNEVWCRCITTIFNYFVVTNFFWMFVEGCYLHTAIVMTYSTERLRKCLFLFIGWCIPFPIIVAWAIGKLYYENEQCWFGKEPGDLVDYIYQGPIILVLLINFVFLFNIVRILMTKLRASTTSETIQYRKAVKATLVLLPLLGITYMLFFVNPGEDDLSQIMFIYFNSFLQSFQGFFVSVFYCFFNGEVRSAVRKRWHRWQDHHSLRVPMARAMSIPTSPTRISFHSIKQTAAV
Procedure, shortened: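 Percent activation was referenced to 1000 nM UCN2 (100%), and EC50 values taken as concentrations giving half of maximal response. The read-out was a homogeneous time-resolved fluorescence cAMP kit, fluorescence ratio 665/620 nm. Thawed cells (2000/well) saw compound for 30 min at RT in buffer with 2 mM IBMX and 0%/0.1% HSA.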

CRF1R receptor = molecular target: T2, CRF1R receptor (Homo sapiens, UniProt P34998); experiment: cAMP activity at anti-target CRF1R, CHO-K1 cell line clone 2 (Example 19.10); type: cell-based; conditions: CRF1R CHO-K1 clone 2; for EC50: 0% HSA, read-out: EC50 [nM] 0% HSA; for Emax: 100% = Sauvagine at 100 nM
T2 construct: host or cells: CHO-K1 clone 2
T2 sequence (P34998 24-415): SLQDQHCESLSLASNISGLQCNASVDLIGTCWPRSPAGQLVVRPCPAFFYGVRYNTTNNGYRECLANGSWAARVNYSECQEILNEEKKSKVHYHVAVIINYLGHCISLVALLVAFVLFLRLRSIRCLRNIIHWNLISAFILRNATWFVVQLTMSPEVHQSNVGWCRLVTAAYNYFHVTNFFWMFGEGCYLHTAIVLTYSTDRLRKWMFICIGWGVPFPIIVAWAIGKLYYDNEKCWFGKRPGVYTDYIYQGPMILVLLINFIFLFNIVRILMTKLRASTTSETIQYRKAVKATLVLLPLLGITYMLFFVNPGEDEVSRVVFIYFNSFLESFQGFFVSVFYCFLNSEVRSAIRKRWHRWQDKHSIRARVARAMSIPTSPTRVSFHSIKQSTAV
Procedure, shortened: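 The cAMP read-out used the same protocol as the previous assay, except that Sauvagine at 100 nM set the 100% activation control. Cells were CHO-K1 clone 2 overexpressing CRF1R, cultured in F12 medium with 10% FBS and G418 and stored frozen until use.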

[1] = 0% HSA, read-out: EC50 [nM], 0% HSA
[2] = 0.1% HSA, read-out: EC50 [nM], 0.1% HSA

EC50 (human CRF2α receptor; [1])	EC50 (CRF1R receptor)	Emax (CRF1R receptor)	EC50 (human CRF2α receptor; [2])	Compound
0.32 nM	> 100 nM	3.7%		CC[C@H](C)[C@H](N)C(=O)N[C@H](C(=O)N[C@@H](CC(C)C)C(=O)N[C@@H](CO)C(=O)N[C@@H](CC(C)C)C(=O)N[C@@H](CC(=O)O)C(=O)N[C@H](C(=O)N1CCC[C@H]1C(=O)N[C@H](C(=O)N[C@@H](CCCCN)C(=O)N[C@@H](CC(C)C)C(=O)N[C@@H](CCCCNC(=O)COCCOCCNC(=O)COCCOCCNC(=O)CC[C@H](NC(=O)CCCCCCCCCCCCCCCCC(=O)O)C(=O)O)C(=O)N[C@@H](CCC(N)=O)C(=O)N[C@H](C(=O)N[C@@H](CC(C)C)C(=O)N[C@@H](CC(C)C)C(=O)N[C@@H](CCCCN)C(=O)N[C@@H](CCC(N)=O)C(=O)N[C@@H](CCC(=O)O)C(=O)N[C@@H](CCCNC(=N)N)C(=O)N[C@@H](CCC(N)=O)C(=O)N[C@@H](CCCCN)C(=O)NC(C)(C)C(=O)N[C@@H](CCC(N)=O)C(=O)N[C@@H](CCCNC(=N)N)C(=O)N[C@@H](CCC(=O)O)C(=O)N[C@@H](CCC(N)=O)C(=O)N[C@@H](C)C(=O)N[C@@H](CCC(=O)O)C(=O)N[C@H](C(=O)N[C@@H](CC(N)=O)C(=O)N[C@@H](CCCCN)C(=O)N[C@@H](CCC(N)=O)C(=O)N[C@H](C(=O)N[C@@H](CC(C)C)C(=O)N[C@@H](C)C(=O)N[C@@H](CCC(N)=O)C(=O)N[C@H](C(N)=O)C(C)C)[C@@H](C)CC)[C@@H](C)O)[C@@H](C)CC)[C@@H](C)CC)C(C)C)C(C)C [compound 104] (H-IVLSLDVPIKLK([AEEA-AEEA-γGlu-C18 diacid])QILLKQERQK[Aib]QREQAETNKQILAQV-NH2)
0.41 nM	> 100 nM	15.4%	15.3 nM	CC[C@H](C)[C@H](N)C(=O)N[C@H](C(=O)N[C@@H](CC(C)C)C(=O)N[C@@H](CO)C(=O)N[C@@H](CC(C)C)C(=O)N[C@@H](CC(=O)O)C(=O)N[C@H](C(=O)N1CCC[C@H]1C(=O)N[C@H](C(=O)N[C@@H](CCCCN)C(=O)N[C@@H](CC(C)C)C(=O)N[C@@H](CCCCNC(=O)COCCOCCNC(=O)COCCOCCNC(=O)CC[C@H](NC(=O)CCCCCCCCCCCCCCCCC(=O)O)C(=O)O)C(=O)N[C@@H](CCC(N)=O)C(=O)N[C@H](C(=O)N[C@@H](CC(C)C)C(=O)N[C@@H](CC(C)C)C(=O)N[C@@H](CCC(=O)O)C(=O)N[C@@H](CCC(N)=O)C(=O)N[C@@H](CCC(=O)O)C(=O)N[C@@H](CCCNC(=N)N)C(=O)N[C@@H](CCC(N)=O)C(=O)N[C@@H](CCCCN)C(=O)NC(C)(C)C(=O)N[C@@H](CCC(N)=O)C(=O)N[C@@H](CCCNC(=N)N)C(=O)N[C@@H](CCC(N)=O)C(=O)N[C@@H](CCC(N)=O)C(=O)N[C@@H](C)C(=O)N[C@@H](CCC(=O)O)C(=O)N[C@H](C(=O)N[C@@H](CC(N)=O)C(=O)N[C@@H](CCCCN)C(=O)N[C@@H](CCC(N)=O)C(=O)N[C@H](C(=O)N[C@@H](CC(C)C)C(=O)N[C@@H](C)C(=O)N[C@@H](CCC(N)=O)C(=O)N[C@H](C(N)=O)C(C)C)[C@@H](C)CC)[C@@H](C)O)[C@@H](C)CC)[C@@H](C)CC)C(C)C)C(C)C [compound 105] (H-IVLSLDVPIKLK([AEEA-AEEA-γGlu-C18 diacid])QILLEQERQK[Aib]QRQQAETNKQILAQV-NH2)
0.53 nM	> 100 nM	5.1%	13.2 nM	CC[C@H](C)[C@H](N)C(=O)N[C@H](C(=O)N[C@@H](CC(C)C)C(=O)N[C@@H](CO)C(=O)N[C@@H](CC(C)C)C(=O)N[C@@H](CC(=O)O)C(=O)N[C@H](C(=O)N1CCC[C@H]1C(=O)N[C@H](C(=O)N[C@@H](CCCCN)C(=O)N[C@@H](CC(C)C)C(=O)N[C@@H](CCCCNC(=O)COCCOCCNC(=O)COCCOCCNC(=O)CC[C@H](NC(=O)CCCCCCCCCCCCCCCCC(=O)O)C(=O)O)C(=O)N[C@@H](CCC(N)=O)C(=O)N[C@H](C(=O)N[C@@H](CC(C)C)C(=O)N[C@@H](CC(C)C)C(=O)N[C@@H](CCC(=O)O)C(=O)N[C@@H](CCC(N)=O)C(=O)N[C@@H](CCC(=O)O)C(=O)N[C@@H](CCCNC(=N)N)C(=O)N[C@@H](CCC(N)=O)C(=O)N[C@@H](CCCCN)C(=O)NC(C)(C)C(=O)N[C@@H](CCC(N)=O)C(=O)N[C@@H](CCCNC(=N)N)C(=O)N[C@@H](CCC(=O)O)C(=O)N[C@@H](CCC(N)=O)C(=O)N[C@@H](C)C(=O)N[C@@H](CCC(=O)O)C(=O)N[C@H](C(=O)N[C@@H](CC(N)=O)C(=O)N[C@@H](CCCCN)C(=O)N[C@@H](CCC(N)=O)C(=O)N[C@H](C(=O)N[C@@H](CC(C)C)C(=O)N[C@@H](CCC(=O)O)C(=O)N[C@@H](CCCNC(=N)N)C(=O)N[C@H](C(N)=O)C(C)C)[C@@H](C)CC)[C@@H](C)O)[C@@H](C)CC)[C@@H](C)CC)C(C)C)C(C)C [compound 106] (H-IVLSLDVPIKLK([AEEA-AEEA-γGlu-C18 diacid])QILLEQERQK[Aib]QREQAETNKQILERV-NH2)
0.23 nM	> 100 nM	-2%		CC[C@H](C)[C@H](N)C(=O)N[C@H](C(=O)N[C@@H](CC(C)C)C(=O)N[C@@H](CO)C(=O)N[C@@H](CC(C)C)C(=O)N[C@@H](CC(=O)O)C(=O)N[C@H](C(=O)N1CCC[C@H]1C(=O)N[C@H](C(=O)N[C@@H](CCCCN)C(=O)N[C@@H](CC(C)C)C(=O)N[C@@H](CCCCNC(=O)COCCOCCNC(=O)COCCOCCNC(=O)CC[C@H](NC(=O)CCCCCCCCCCCCCCCCC(=O)O)C(=O)O)C(=O)N[C@@H](CCC(N)=O)C(=O)N[C@H](C(=O)N[C@@H](CC(C)C)C(=O)N[C@@H](CC(C)C)C(=O)N[C@@H](CCCCN)C(=O)N[C@@H](CCC(N)=O)C(=O)N[C@@H](CCC(=O)O)C(=O)N[C@@H](CCCNC(=N)N)C(=O)N[C@@H](CCC(N)=O)C(=O)N[C@@H](CCCCN)C(=O)NC(C)(C)C(=O)N[C@@H](CCC(N)=O)C(=O)N[C@@H](CCCNC(=N)N)C(=O)N[C@@H](CCC(N)=O)C(=O)N[C@@H](CCCCN)C(=O)N[C@@H](C)C(=O)N[C@@H](CCC(=O)O)C(=O)N[C@H](C(=O)N[C@@H](CC(N)=O)C(=O)N[C@@H](CCCCN)C(=O)N[C@@H](CCC(N)=O)C(=O)N[C@H](C(=O)N[C@@H](CC(C)C)C(=O)N[C@@H](C)C(=O)N[C@@H](CCC(N)=O)C(=O)N[C@H](C(N)=O)C(C)C)[C@@H](C)CC)[C@@H](C)O)[C@@H](C)CC)[C@@H](C)CC)C(C)C)C(C)C [compound 108] (H-IVLSLDVPIKLK([AEEA-AEEA-γGlu-C18 diacid])QILLKQERQK[Aib]QRQKAETNKQILAQV-NH2; N-terminus assumed)
